Data from ChEMBL document CHEMBL3885861, “Open TG-GATES”.

Species: Rattus norvegicus
Assay: Open TG-GATES - Regimen: Daily Repeat
Type: toxicity, organism-based, Sprague-Dawley
Set-up: regimen Daily Repeat, gender Male, age 6 weeks
Conditions: in vivo, po, 0 mg/kg, route gavage, dose level Control; for APTT / Bas / Eos / Fbg / Ht / Lym / MCH / MCHC / MCV / PT / Plat / RBC / Ret / WBC / Hb / Mono: tissue Blood; for KIDNEY_L / KIDNEY_R / KIDNEY_TOTAL: tissue Kidney; for LIVER: tissue Liver; for ALP / ALT / AST / CRE / Ca / Cl / DBIL / IP / K / LDH / Na / PL / RALB / TBIL / TC / TG / TP / gamma-GTP / BUN: tissue Plasma

`C#C[C@]1(O)CC[C@H]2[C@@H]3CCc4cc(O)ccc4[C@H]3CC[C@@]21C` [ETHINYL ESTRADIOL] showed a TERMINAL_BW (72 h, time 3 day) of 222.5 g, an APTT (72 h, time 3 day) of 16.4 s and a Bas (72 h, time 3 day) of 0.2%. It also gave an Eos (72 h, time 3 day) of 1%, a Fbg (72 h, time 3 day) of 261.6 mg/dL and a Ht (72 h, time 3 day) of 40.2%. For the same compound, the Lym (72 h, time 3 day) was 79%, the MCH (72 h, time 3 day) was 21.4 pg and the MCHC (72 h, time 3 day) was 33.5%. It also gave an MCV (72 h, time 3 day) of 63.8 fL, a PT (72 h, time 3 day) of 12.3 s and a Plat (72 h, time 3 day) of 110.8 x10_4/uL. It also gave an RBC (72 h, time 3 day) of 630.4 x10_4/ul, a Ret (72 h, time 3 day) of 7.8% and a WBC (72 h, time 3 day) of 93.3 x10_2/uL. For the same compound, the KIDNEY_L (72 h, time 3 day) was 0.9 g, the KIDNEY_R (72 h, time 3 day) was 1 g and the LIVER (72 h, time 3 day) was 10.3 g. The ALP (72 h, time 3 day) was 1467.2 IU/L, the ALT (72 h, time 3 day) was 49.6 IU/L and the AST (72 h, time 3 day) was 73.2 IU/L. For the same compound, the CRE (72 h, time 3 day) was 0.2 mg/dL, the Ca (72 h, time 3 day) was 10.8 mg/dL and the Cl (72 h, time 3 day) was 106.8 meq/L. For the same compound, the DBIL (72 h, time 3 day) was 0.018 mg/dL, the IP (72 h, time 3 day) was 6.5 mg/dL and the K (72 h, time 3 day) was 4 meq/L. For the same compound, the LDH (72 h, time 3 day) was 68.4 IU/L, the Na (72 h, time 3 day) was 143.2 meq/L and the PL (72 h, time 3 day) was 134.2 mg/dL. It also gave an RALB (72 h, time 3 day) of 2.6 g/dL, a TBIL (72 h, time 3 day) of 0.034 mg/dL and a TC (72 h, time 3 day) of 77.8 mg/dL. For the same compound, the TG (72 h, time 3 day) was 98.2 mg/dL, the TP (72 h, time 3 day) was 5.5 g/dL and the gamma-GTP (72 h, time 3 day) was 1.2 IU/L. It also gave a TERMINAL_BW ([…], time 14 day) of 321.6 g, a TERMINAL_BW ([…], time 28 day) of 423 g and an APTT ([…], time 14 day) of 16.7 s. It also gave a Bas ([…], time 14 day) of 0%, an Eos ([…], time 14 day) of 1% and a Fbg ([…], time 14 day) of 279.4 mg/dL. It also gave a Hb ([…], time 14 day) of 13.9 g/dL, a Ht ([…], time 14 day) of 40.3% and a Lym ([…], time 14 day) of 76.4%. The MCH ([…], time 14 day) was 20.9 pg, the MCV ([…], time 14 day) was 60.2 fL and the Mono ([…], time 14 day) was 2.4%. For the same compound, the PT ([…], time 14 day) was 11.8 s, the Plat ([…], time 14 day) was 120 x10_4/uL and the RBC ([…], time 14 day) was 668.4 x10_4/ul. It also gave a Ret ([…], time 14 day) of 4.5%, a WBC ([…], time 14 day) of 90.3 x10_2/uL and an APTT ([…], time 28 day) of 18 s. It also gave a Bas ([…], time 28 day) of 0.2%, an Eos ([…], time 28 day) of 1% and a Fbg ([…], time 28 day) of 294.2 mg/dL. The Hb ([…], time 28 day) was 15 g/dL, the Ht ([…], time 28 day) was 42.5% and the Lym ([…], time 28 day) was 79.4%. It also gave an MCH ([…], time 28 day) of 20.3 pg, an MCHC ([…], time 28 day) of 35.3% and an MCV ([…], time 28 day) of 57.3 fL. It also gave a Mono ([…], time 28 day) of 2.2%, a Plat ([…], time 28 day) of 88.3 x10_4/uL and an RBC ([…], time 28 day) of 742.6 x10_4/ul. For the same compound, the Ret ([…], time 28 day) was 2.6%, the WBC ([…], time 28 day) was 108.2 x10_2/uL and the KIDNEY_L ([…], time 14 day) was 1.3 g. For the same compound, the KIDNEY_R ([…], time 14 day) was 1.3 g, the KIDNEY_TOTAL ([…], time 14 day) was 2.6 g and the KIDNEY_L ([…], time 28 day) was 1.4 g. It also gave a KIDNEY_R ([…], time 28 day) of 1.4 g, a KIDNEY_TOTAL ([…], time 28 day) of 2.8 g and an LIVER ([…], time 14 day) of 14.4 g. The LIVER ([…], time 28 day) was 18.3 g, the ALP ([…], time 14 day) was 1586.6 IU/L and the ALT ([…], time 14 day) was 44.2 IU/L. For the same compound, the AST ([…], time 14 day) was 66.6 IU/L, the BUN ([…], time 14 day) was 15.4 mg/dL and the CRE ([…], time 14 day) was 0.2 mg/dL. The Ca ([…], time 14 day) was 11.3 mg/dL, the Cl ([…], time 14 day) was 104.8 meq/L and the DBIL ([…], time 14 day) was 0.016 mg/dL. It also gave an IP ([…], time 14 day) of 6.5 mg/dL, a K ([…], time 14 day) of 3.9 meq/L and an LDH ([…], time 14 day) of 72.8 IU/L. For the same compound, the Na ([…], time 14 day) was 143.2 meq/L, the PL ([…], time 14 day) was 143 mg/dL and the TBIL ([…], time 14 day) was 0.07 mg/dL. It also gave a TC ([…], time 14 day) of 74.6 mg/dL, a TG ([…], time 14 day) of 104.4 mg/dL and a TP ([…], time 14 day) of 6 g/dL. For the same compound, the gamma-GTP ([…], time 14 day) was 0.8 IU/L, the ALP ([…], time 28 day) was 1125 IU/L and the ALT ([…], time 28 day) was 39.4 IU/L. For the same compound, the AST ([…], time 28 day) was 58 IU/L, the BUN ([…], time 28 day) was 16 mg/dL and the CRE ([…], time 28 day) was 0.2 mg/dL. The Cl ([…], time 28 day) was 104.8 meq/L, the DBIL ([…], time 28 day) was 0.012 mg/dL and the IP ([…], time 28 day) was 6.1 mg/dL. For the same compound, the K ([…], time 28 day) was 3.8 meq/L, the LDH ([…], time 28 day) was 59.2 IU/L and the Na ([…], time 28 day) was 143.2 meq/L. It also gave a PL ([…], time 28 day) of 155.8 mg/dL, an RALB ([…], time 28 day) of 2.9 g/dL and a TBIL ([…], time 28 day) of 0.066 mg/dL. For the same compound, the TC ([…], time 28 day) was 80.4 mg/dL, the TG ([…], time 28 day) was 137.2 mg/dL and the TP ([…], time 28 day) was 6.3 g/dL. It also gave a gamma-GTP ([…], time 28 day) of 1 IU/L.
